According to patent publication US11541051B2, “Compositions and methods for treating CDK4/6-mediated cancer” (Icahn School of Medicine at Mount Sinai, priority 2016, dated 2023):
“Also recorded” adds a separate entry of the source.

What was measured:
Assay type in all cases: cell-based
CDK4/6 [1] = experiment: Western blot of CDK4 and CDK6 in MCF7 breast cancer cells treated with degraders (Example 12, FIG. 10 A); details: 1 or 5 μM, 24 h
Method: (§1) Breast cancer cell lines (MCF7, T47D, and ZR-75-1) and melanoma cell lines (A375, SK-MEL-2, SK-MEL-30, and WM1382) were cultured in the presence of DMEM or RPMI supplemented with 10% FBS in the presence of penicillin and streptomycin.
(§2) Protein concentrations were determined by BCA from cell lysates and equal amounts of protein are loaded to a Bis-Tris 4-12% gel. Gels were run at 80 V for 4 h using 1× running buffer (25 mM Tris, pH 8.3, […] glycine, 0.1% SDS). Proteins were transferred to a nitrocellulose membrane for 2 h at 100 V using transfer buffer (25 mM Tris, pH 8.3, […] glycine, 20% methanol). Ponceau S staining (0.1% Ponceau S, 1% acetic acid) was used to confirm transfer of proteins to the membrane followed by blocking of the membrane for 30 min at room temperature using blocking buffer (5% dry nonfat milk, 0.1% Tween, 0.02% sodium azide in TBS). The blocked membrane is incubated with primary antibodies (1:1000 dilution) in blocking buffer at 4° C. overnight. When primary phosphor-antibodies were used, then the membrane is incubated with 5% BSA instead of milk. The membrane was washed three times, 10 min each, with wash buffer (0.1% Tween in TBS) followed by incubation with secondary HRP conjugated antibody (1:5000 dilution) in 2.5% dry nonfat milk, 0.1% Tween in TBS for 1 h at room temperature. The membrane was washed three times, 10 min each, with wash buffer (0.1% Tween in TBS). Membranes are incubated with ECL for 1 min and proteins are detected after exposure to a blue autoradiographic film.
(§3) MCF7 breast cancer cells were treated with 1 or 5 μM XY019-095, XY019-098, XY019-0100, XY019-105A, XY019-105B, XY019-106, or XY019-108 for 24 h, then lysed and immunoblotted with antibodies to CDK4, CDK6, and actin (FIG. 10, panel A). […] T47D breast cancer cells were treated with 0.1, 0.3, 1, 3, 10, or 30 μM XY019-106 for 24 h, then lysed and immunoblotted with antibodies to phospho-Rb (pRB), CDK4, and actin (FIG. 10, panel B).

CDK4/6 [2] = experiment: Characterization of CDK4/6 degraders/disruptors in various breast cancer and melanoma cells (summary, Examples 12 and 13)
Method: Specific exemplary abemaciclib-, ribociclib-, and palbociclib-based CDK4/6 degraders/disruptors were characterized in various different breast cancer and melanoma cells (Examples 12 and 13, FIGS. 10-23). […] This efficacy in suppressing CDK4/6 expression and CDK4/6 activity correlated with efficacy in inhibiting cancer cell proliferation.
as §2

CDK4/6 [3] = experiment: Western blot of CDK4, CDK6 and phospho-Rb in SK-MEL-2 or A375 melanoma cells treated with degraders (Example 12, FIG. 11); details: SK-MEL-2 or A375 cells; 1 or 3 μM; 24 h
Method: as §1
as §2, with “The membrane was washed three times, 10 min each, with wash buffer (0.1% Tween in TBS) followed by incubation with secondary HRP conjugated antibody (1:5000 dilution) in 2.5% dry nonfat milk, 0.1% Tween in TBS for 1 h at room temperature. The membrane was washed three times, 10 min each, with wash buffer (0.1% Tween in TBS).” left out, “film. […]” for “film.”

CDK4/6 [4] = molecular target: T1, CDK4/6 (Homo sapiens, UniProt P11802); experiment: Western blot of CDK4/6 and phospho-Rb in T47D breast cancer cells treated with degraders (Example 12, FIGS. 10 B, 17, 19); details: 24 h
T1 construct: endogenous in cells; host or cells: MCF7, T47D, ZR-75-1 (breast cancer); A375, SK-MEL-2, SK-MEL-30, WM1382 (melanoma)
T1 sequence (P11802 2-303): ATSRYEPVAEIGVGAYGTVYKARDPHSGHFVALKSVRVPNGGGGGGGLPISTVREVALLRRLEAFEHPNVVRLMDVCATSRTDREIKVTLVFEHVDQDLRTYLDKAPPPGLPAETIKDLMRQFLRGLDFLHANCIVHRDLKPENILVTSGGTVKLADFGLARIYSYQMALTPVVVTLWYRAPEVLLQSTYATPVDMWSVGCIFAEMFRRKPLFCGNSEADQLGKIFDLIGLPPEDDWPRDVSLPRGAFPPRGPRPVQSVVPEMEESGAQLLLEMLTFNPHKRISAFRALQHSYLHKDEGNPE
Method: as §1, §2, §3
(§4) T47D breast cancer cells (FIG. 17) were treated with 0.3 or 1 μM XY028-140, YX039-48, YX039-123, YX039-56, YX039-124, YX039-65, YX039-147 or YX039-74 for 24 h, then lysed and immunoblotted with antibodies to phospho-Rb (pRb), total Rb, PLK1, cyclin A, CDK4, CDK6, and actin.
(§5) T47D breast cancer cells (FIG. 19) were treated with 0.3 or 1 μM XY028-133, YX044-18, YX044-22, XY028-140, YX044-19 or YX044-38 for 24 h, then lysed and immunoblotted with antibodies to phospho-Rb (pRb), total Rb, PLK1, cyclin A, CDK4, CDK6, and actin.

CDK4/6 [5] = experiment: as above; details: concentrations as high as 30 μM, 24 h
Method: as §1, §2, §3, §4, §5

CDK4/6 [6] = experiment: Western blot of CDK4, CDK6 and phospho-Rb in A375 melanoma cells treated with degraders (Example 12, FIGS. 12, 13, 16, 18); details: 24 h
Method: as §1, §2
A375 melanoma cells (FIG. 13) were treated with 1 or 3 μM Ribociclib (RB), YX030-126, YX030-108, YX030-107, YX030-086, YX030-085 or XY028-133 for 24 h, then lysed and immunoblotted with antibodies to CDK4, CDK6, cyclin A, PLK1, phospho-Rb (pRb), and actin.
A375 melanoma cells (FIG. 16, panel A) were treated with 0.3 or 1 μM XY028-140, YX039-65, YX039-48, YX039-123, YX039-56, YX039-124 or YX039-147 for 24 h. A375 melanoma cells were treated with 1 or 3 μM XY028-140, YX039-56, YX039-65 or XY028-133 (FIG. 16, panel B). Cells were lysed and immunoblotted with antibodies to phospho-Rb (pRb), total Rb, PLK1, cyclin A, CDK4, CDK6, and actin.
A375 melanoma cells (FIG. 18) were treated with 1 or 3 μM XY028-133, YX044-18, YX044-22, XY028-140, YX044-19 or YX044-38 for 24 h, then lysed and immunoblotted with antibodies to phospho-Rb (pRb), total Rb, PLK1, cyclin A, CDK4, CDK6, and actin.

A375 melanoma cells [7] = experiment: Bright field imaging of A375 melanoma cell proliferation (Example 13, FIG. 20); details: 1 or 2 μM, 7 days
A375 melanoma cells [8] = experiment: Crystal violet staining (clonogenic assay) of A375 melanoma cells (Example 13, FIG. 21); details: 0.03-3 μM, 11 days
Method: Cells were cultured for 7-11 days in the presence of different compounds. Media with compound was replenished every two days. At the end of the experiment, media was aspirated and viable cells were stained with 0.5% crystal violet dye.

[9] = system: V5-tagged CDK4 or V5-tagged CDK6; experiment: Western blot of V5-tagged CDK4 or CDK6 ectopically expressed in 293H cells (Example 8); details: 1, 3 or 10 μM, 24 h
Method: Protein concentrations were determined by BCA from cell lysates and equal amounts of protein are loaded to a Bis-Tris 4-12% gel. Gels were run at 80 V for 4 h using 1× running buffer (25 mM Tris, pH 8.3, 1.92 M glycine, 0.1% SDS). Proteins were transferred to a nitrocellulose membrane for 2 h at 100 V using transfer buffer (25 mM Tris, pH 8.3, 1.92 M glycine, 20% methanol). Ponceau S staining (0.1% Ponceau S, 1% acetic acid) was used to confirm transfer of proteins to the membrane followed by blocking of the membrane for 30 min at room temperature using blocking buffer (5% dry nonfat milk, 0.1% Tween, 0.02% sodium azide in TBS). The blocked membrane is incubated with primary antibodies (1:1000 dilution) in blocking buffer at 4° C. overnight. When primary phosphor-antibodies were used, then the membrane is incubated with 5% BSA instead of milk. The membrane was washed three times, 10 min each, with wash buffer (0.1% Tween in TBS) followed by incubation with secondary HRP conjugated antibody (1:5000 dilution) in 2.5% dry nonfat milk, 0.1% Tween in TBS for 1 h at room temperature. The membrane was washed three times, 10 min each, with wash buffer (0.1% Tween in TBS). Membranes are incubated with ECL for 1 min and proteins are detected after exposure to a blue autoradiographic film.

Structure (SMILES)	suppression of CDK4/6 expression (CDK4/6 [1])	suppression of both CDK4/6 expression and CDK4/6 activity (summary) (CDK4/6 [2])	efficacy in inhibiting both CDK4/6 expression and CDK4/6 activity (decreased Rb phosphorylation) (CDK4/6 [3])	suppression of CDK4 expression and inhibition of CDK4 activity (Rb phosphorylation) (CDK4/6 [4]; 0.1-30 μM)	concentrations with significant effects on CDK4 expression and Rb phosphorylation (CDK4/6 [4]) [µM]	inhibition of Rb phosphorylation at high concentrations (CDK4/6 [5])	efficacy in inhibiting both CDK4/6 expression and CDK4/6 activity (decreased Rb phosphorylation) (CDK4/6 [6]; 1 or 3 μM)	inhibition of cancer cell proliferation compared with palbociclib (bright field imaging) (A375 melanoma cells [7])	inhibition of cancer cell proliferation compared with palbociclib (crystal violet staining) (A375 melanoma cells [8])	efficacy in inhibiting both CDK4/6 expression and CDK4/6 activity (decreased Rb phosphorylation) (CDK4/6 [6]; 0.3 or 1 μM (FIG. 16 A), 1 or 3 μM (FIG. 16 B))	expression of V5-tagged CDK4 and CDK6 [9]
CC(=O)c1c(C)c2cnc(Nc3ccc(N4CCN(C(=O)CCCCCCC(=O)N[C@H](C(=O)N5C[C@H](O)C[C@H]5C(=O)NCc5ccc(-c6scnc6C)cc5)C(C)(C)C)CC4)cn3)nc2n(C2CCCC2)c1=O [XY019-106, (2S,4R)-1-((S)-2-(8-(4-(6-((6-acetyl-8-cyclopentyl-5-methyl-7-oxo-7,8-dihydropyrido[2,3-d]pyrimidin-2-yl)amino)pyridin-3-yl)piperazin-1-yl)-8-oxooctanamido)-3,3-dimethylbutanoyl)-4-hydroxy-N-(4-(4-methylthiazol-5-yl)benzyl)pyrrolidine-2-carboxamide]	especially effective in suppressing CDK4/6 expression even at 1 μM	especially effective in suppressing both CDK4/6 expression and CDK4/6 activity	efficacy of CDK4/6 degraders/disruptors, particularly XY019-106 and XY028-003	both suppresses CDK4 expression and inhibit CDK4 activity	≥ 0.3	inhibited Rb phosphorylation even when administered at high concentrations	efficacy of CDK4/6 degraders, particularly XY028-133, XY028-140, XY019-106 and XY028-003				
CC(=O)c1c(C)c2cnc(Nc3ccc(N4CCN(C(=O)CCCCCC(=O)N[C@H](C(=O)N5C[C@H](O)C[C@H]5C(=O)NCc5ccc(-c6scnc6C)cc5)C(C)(C)C)CC4)cn3)nc2n(C2CCCC2)c1=O [XY028-133, (2S,4R)-1-((S)-2-(7-(4-(6-((6-acetyl-8-cyclopentyl-5-methyl-7-oxo-7,8-dihydropyrido[2,3-d]pyrimidin-2-yl)amino)pyridin-3-yl)piperazin-1-yl)-7-oxoheptanamido)-3,3-dimethylbutanoyl)-4-hydroxy-N-(4-(4-methylthiazol-5-yl)benzyl)pyrrolidine-2-carboxamide]		especially effective in suppressing both CDK4/6 expression and CDK4/6 activity					efficacy of CDK4/6 degraders, particularly XY028-133, XY028-140, XY019-106 and XY028-003; also recorded: efficacy of CDK4/6 degraders, particularly XY028-133 and YX044-18	more effective in inhibiting cancer cell proliferation than palbociclib at the same concentration	more effective in inhibiting cancer cell proliferation than palbociclib at 1 and 3 μM	efficacy of CDK4/6 degraders, particularly XY028-133	
CN(C)C(=O)c1cc2cnc(Nc3ccc(N4CCNCC4)cn3)nc2n1C1CCCC1 [ribociclib]											upregulated the expression of V5-tagged CDK4 and CDK6
